Key:
Format in all cases: in vivo
[1] = tested on: large crabgrass (Digitaria sanguinalis, DIGSA); experiment: Pre-emerge test, greenhouse herbicide activity screening; conditions: pre-emerge, phytotoxicity rating 0-100 at 14 days after application
Procedure, shortened: (§1)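 Compounds in acetone were track-sprayed at 15-1000 g ai/ha (187 l/ha) on sandy loam pots: pre-emerge one day after seeding, post-emerge at 2-3 leaf stage with 0.25% v/v non-ionic surfactant. Phytotoxicity was rated 14 days later on a 0 (no damage) to 100 (complete death) scale.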

[2] = tested on: barnyardgrass (Echinochloa crus-galli, ECHCG); experiment: as above; conditions: pre-emerge, phytotoxicity rating 0-100 at 14 days after application
Procedure, shortened: as §1

[3] = tested on: johnsongrass (Sorghum halepense, SORHA); experiment: as above; conditions: pre-emerge, phytotoxicity rating 0-100 at 14 days after application
Procedure, shortened: as §1

[4] = tested on: lambsquarters (Chenopodium album, CHEAL); experiment: as above; conditions: pre-emerge, phytotoxicity rating 0-100 at 14 days after application
Procedure, shortened: as §1

[5] = tested on: sicklepod (Cassia obtusifolia, CASOB); experiment: as above; conditions: pre-emerge, phytotoxicity rating 0-100 at 14 days after application
Procedure, shortened: as §1

[6] = tested on: velvetleaf (Abutilon theophrasti, ABUTH); experiment: as above; conditions: pre-emerge, phytotoxicity rating 0-100 at 14 days after application
Procedure, shortened: as §1

[7] = tested on: ivyleaf morningglory (Ipomoea hederacea, IPOHE); experiment: as above; conditions: pre-emerge, phytotoxicity rating 0-100 at 14 days after application
Procedure, shortened: as §1

[8] = tested on: green foxtail (Setaria viridis, SETVI); experiment: as above; conditions: pre-emerge, phytotoxicity rating 0-100 at 14 days after application
Procedure, shortened: as §1

[9] = tested on: large crabgrass (Digitaria sanguinalis, DIGSA); experiment: Post-emerge test, greenhouse herbicide activity screening; conditions: post-emerge, phytotoxicity rating 0-100 at 14 days after application
Procedure, shortened: (§2)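 Rating: 0–100 visual injury, 14 DAA. Application: acetone, 187 l/ha, 15–1000 g ai/ha, flat-fan track sprayer with nozzle 40–45 cm above soil or canopy. Post-emerge runs used 0.25% v/v surfactant on 2–3 leaf plants.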

[10] = tested on: barnyardgrass (Echinochloa crus-galli, ECHCG); experiment: as above; conditions: post-emerge, phytotoxicity rating 0-100 at 14 days after application
Procedure, shortened: as §2

[11] = tested on: johnsongrass (Sorghum halepense, SORHA); experiment: as above; conditions: post-emerge, phytotoxicity rating 0-100 at 14 days after application
Procedure, shortened: as §2

[12] = tested on: lambsquarters (Chenopodium album, CHEAL); experiment: as above; conditions: post-emerge, phytotoxicity rating 0-100 at 14 days after application
Procedure, shortened: as §2

[13] = tested on: sicklepod (Cassia obtusifolia, CASOB); experiment: as above; conditions: post-emerge, phytotoxicity rating 0-100 at 14 days after application
Procedure, shortened: as §2

[14] = tested on: redroot pigweed (Amaranthus retroflexus, AMARE); experiment: as above; conditions: post-emerge, phytotoxicity rating 0-100 at 14 days after application
Procedure, shortened: as §2

[15] = tested on: velvetleaf (Abutilon theophrasti, ABUTH); experiment: as above; conditions: post-emerge, phytotoxicity rating 0-100 at 14 days after application
Procedure, shortened: as §2

[16] = tested on: ivyleaf morningglory (Ipomoea hederacea, IPOHE); experiment: as above; conditions: post-emerge, phytotoxicity rating 0-100 at 14 days after application
Procedure, shortened: as §2

[17] = tested on: green foxtail (Setaria viridis, SETVI); experiment: as above; conditions: post-emerge, phytotoxicity rating 0-100 at 14 days after application
Procedure, shortened: as §2

[18] = tested on: redroot pigweed (Amaranthus retroflexus, AMARE); experiment: Pre-emerge test, greenhouse herbicide activity screening; conditions: pre-emerge, phytotoxicity rating 0-100 at 14 days after application
Procedure, shortened: (§3)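 Herbicidal damage is scored 0 (none) to 100 (complete plant death) two weeks after a simulated field spray. Rates span 15–1000 g ai/ha, delivered in acetone at 187 l/ha. For post-emergence treatments, plants have 2–3 leaves and the spray carries 0.25% v/v non-ionic surfactant.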

[19] = tested on: upland rice (Oryza sp., var. Tebonnet, RICE); experiment: Post-emerge test, crop safety; conditions: post-emerge, crop damage rating 0-100 at 14 days after application
Procedure, shortened: as §1

[20] = tested on: field corn (Zea mays L., var. Dekalb 535, CORN); experiment: Post-emerge test, crop safety; conditions: post-emerge, crop damage rating 0-100 at 14 days after application
Procedure, shortened: as §1

[21] = tested on: upland rice (Oryza sp., var. Tebonnet, RICE); experiment: Pre-emerge test, crop safety; conditions: crop damage, pre-emerge, phytotoxicity rating 0-100 at 14 days after application
Procedure, shortened: as §3

[22] = tested on: field corn (Zea mays L., var. Dekalb 535, CORN); experiment: Pre-emerge test, crop safety; conditions: crop damage, pre-emerge, phytotoxicity rating 0-100 at 14 days after application
Procedure, shortened: as §3

With `COc1ccccc1COC(=O)Nc1c(C)c(Cl)cc(F)c1-n1c(=O)cc(C(F)(F)F)n(C)c1=O` [4-58] the “Pre-emerge Herbicidal Activity DIGSA” value ([1]; rate 63 g ai/ha) was 30, the “Pre-emerge Herbicidal Activity DIGSA” value ([1]; rate 250 g ai/ha) was 100 and the “Pre-emerge Herbicidal Activity ECHCG” value ([2]; rate 63 g ai/ha) was 30. The “Pre-emerge Herbicidal Activity ECHCG” value ([2]; rate 250 g ai/ha) was 70, the “Pre-emerge Herbicidal Activity SORHA” value ([3]; rate 63 g ai/ha) was 20 and the “Pre-emerge Herbicidal Activity SORHA” value ([3]; rate 250 g ai/ha) was 60. For the same compound, the “Pre-emerge Herbicidal Activity CHEAL” value ([4]; rate 63 g ai/ha) was 100, the “Pre-emerge Herbicidal Activity CHEAL” value ([4]; rate 250 g ai/ha) was 100 and the “Pre-emerge Herbicidal Activity CASOB” value ([5]; rate 63 g ai/ha) was 70. The “Pre-emerge Herbicidal Activity CASOB” value ([5]; rate 250 g ai/ha) was 100, the “Pre-emerge Herbicidal Activity ABUTH” value ([6]; rate 63 g ai/ha) was 100 and the “Pre-emerge Herbicidal Activity ABUTH” value ([6]; rate 250 g ai/ha) was 100. The “Pre-emerge Herbicidal Activity IPOHE” value ([7]; rate 63 g ai/ha) was 30, the “Pre-emerge Herbicidal Activity IPOHE” value ([7]; rate 250 g ai/ha) was 100 and the “Pre-emerge Herbicidal Activity SETVI” value ([8]; rate 63 g ai/ha) was 80. For the same compound, the “Pre-emerge Herbicidal Activity SETVI” value ([8]; rate 250 g ai/ha) was 100, the “Post-emerge Herbicidal Activity DIGSA” value ([9]; 63 g ai/ha) was 20 and the “Post-emerge Herbicidal Activity DIGSA” value ([9]; 250 g ai/ha) was 60. The “Post-emerge Herbicidal Activity ECHCG” value ([10]; 63 g ai/ha) was 30, the “Post-emerge Herbicidal Activity ECHCG” value ([10]; 250 g ai/ha) was 40 and the “Post-emerge Herbicidal Activity SORHA” value ([11]; 63 g ai/ha) was 30. For the same compound, the “Post-emerge Herbicidal Activity SORHA” value ([11]; 250 g ai/ha) was 50, the “Post-emerge Herbicidal Activity CHEAL” value ([12]; 63 g ai/ha) was 100 and the “Post-emerge Herbicidal Activity CHEAL” value ([12]; 250 g ai/ha) was 100. For the same compound, the “Post-emerge Herbicidal Activity CASOB” value ([13]; 63 g ai/ha) was 90, the “Post-emerge Herbicidal Activity CASOB” value ([13]; 250 g ai/ha) was 100 and the “Post-emerge Herbicidal Activity AMARE” value ([14]; 63 g ai/ha) was 100. The “Post-emerge Herbicidal Activity AMARE” value ([14]; 250 g ai/ha) was 100, the “Post-emerge Herbicidal Activity ABUTH” value ([15]; 63 g ai/ha) was 100 and the “Post-emerge Herbicidal Activity ABUTH” value ([15]; 250 g ai/ha) was 100. The “Post-emerge Herbicidal Activity IPOHE” value ([16]; 63 g ai/ha) was 100, the “Post-emerge Herbicidal Activity IPOHE” value ([16]; 250 g ai/ha) was 100 and the “Post-emerge Herbicidal Activity SETVI” value ([17]; 63 g ai/ha) was 50. The “Post-emerge Herbicidal Activity SETVI” value ([17]; 250 g ai/ha) was 90, the “Pre-emerge Herbicidal Activity AMARE” value ([18]; rate 63 g ai/ha) was 100 and the “Pre-emerge Herbicidal Activity AMARE” value ([18]; rate 250 g ai/ha) was 100. For the same compound, the “Post-emerge Herbicidal Activity RICE” value ([19]; 63 g ai/ha) was 60, the “Post-emerge Herbicidal Activity RICE” value ([19]; 250 g ai/ha) was 75 and the “Post-emerge Herbicidal Activity CORN” value ([20]; 63 g ai/ha) was 30. For the same compound, the “Post-emerge Herbicidal Activity CORN” value ([20]; 250 g ai/ha) was 70, the “Pre-emerge Herbicidal Activity RICE” value ([21]; rate 63 g ai/ha) was 30 and the “Pre-emerge Herbicidal Activity RICE” value ([21]; rate 250 g ai/ha) was 70. The “Pre-emerge Herbicidal Activity CORN” value ([22]; rate 63 g ai/ha) was 0 and the “Pre-emerge Herbicidal Activity CORN” value ([22]; rate 250 g ai/ha) was 25.
For `COc1cccc(OC)c1OC(=O)Nc1c(C)c(Cl)cc(F)c1-n1c(=O)cc(C(F)(F)F)n(C)c1=O` [4-59], the “Pre-emerge Herbicidal Activity DIGSA” value ([1]; rate 63 g ai/ha) was 40, the “Pre-emerge Herbicidal Activity DIGSA” value ([1]; rate 250 g ai/ha) was 100 and the “Pre-emerge Herbicidal Activity ECHCG” value ([2]; rate 63 g ai/ha) was 10. For the same compound, the “Pre-emerge Herbicidal Activity ECHCG” value ([2]; rate 250 g ai/ha) was 90, the “Pre-emerge Herbicidal Activity SORHA” value ([3]; rate 63 g ai/ha) was 40 and the “Pre-emerge Herbicidal Activity SORHA” value ([3]; rate 250 g ai/ha) was 95. For the same compound, the “Pre-emerge Herbicidal Activity CHEAL” value ([4]; rate 63 g ai/ha) was 100, the “Pre-emerge Herbicidal Activity CHEAL” value ([4]; rate 250 g ai/ha) was 100 and the “Pre-emerge Herbicidal Activity CASOB” value ([5]; rate 63 g ai/ha) was 20. The “Pre-emerge Herbicidal Activity CASOB” value ([5]; rate 250 g ai/ha) was 90, the “Pre-emerge Herbicidal Activity ABUTH” value ([6]; rate 63 g ai/ha) was 100 and the “Pre-emerge Herbicidal Activity ABUTH” value ([6]; rate 250 g ai/ha) was 100. For the same compound, the “Pre-emerge Herbicidal Activity IPOHE” value ([7]; rate 63 g ai/ha) was 95, the “Pre-emerge Herbicidal Activity IPOHE” value ([7]; rate 250 g ai/ha) was 100 and the “Pre-emerge Herbicidal Activity SETVI” value ([8]; rate 63 g ai/ha) was 30. For the same compound, the “Pre-emerge Herbicidal Activity SETVI” value ([8]; rate 250 g ai/ha) was 90, the “Post-emerge Herbicidal Activity DIGSA” value ([9]; 63 g ai/ha) was 0 and the “Post-emerge Herbicidal Activity DIGSA” value ([9]; 250 g ai/ha) was 20. The “Post-emerge Herbicidal Activity ECHCG” value ([10]; 63 g ai/ha) was 0, the “Post-emerge Herbicidal Activity ECHCG” value ([10]; 250 g ai/ha) was 20 and the “Post-emerge Herbicidal Activity SORHA” value ([11]; 63 g ai/ha) was 0. For the same compound, the “Post-emerge Herbicidal Activity SORHA” value ([11]; 250 g ai/ha) was 30, the “Post-emerge Herbicidal Activity CHEAL” value ([12]; 63 g ai/ha) was 100 and the “Post-emerge Herbicidal Activity CHEAL” value ([12]; 250 g ai/ha) was 100. The “Post-emerge Herbicidal Activity CASOB” value ([13]; 63 g ai/ha) was 30, the “Post-emerge Herbicidal Activity CASOB” value ([13]; 250 g ai/ha) was 60 and the “Post-emerge Herbicidal Activity AMARE” value ([14]; 63 g ai/ha) was 90. For the same compound, the “Post-emerge Herbicidal Activity AMARE” value ([14]; 250 g ai/ha) was 100, the “Post-emerge Herbicidal Activity ABUTH” value ([15]; 63 g ai/ha) was 100 and the “Post-emerge Herbicidal Activity ABUTH” value ([15]; 250 g ai/ha) was 100. The “Post-emerge Herbicidal Activity IPOHE” value ([16]; 63 g ai/ha) was 100, the “Post-emerge Herbicidal Activity IPOHE” value ([16]; 250 g ai/ha) was 100 and the “Post-emerge Herbicidal Activity SETVI” value ([17]; 63 g ai/ha) was 0. For the same compound, the “Post-emerge Herbicidal Activity SETVI” value ([17]; 250 g ai/ha) was 30, the “Pre-emerge Herbicidal Activity AMARE” value ([18]; rate 63 g ai/ha) was 100 and the “Pre-emerge Herbicidal Activity AMARE” value ([18]; rate 250 g ai/ha) was 100. The “Post-emerge Herbicidal Activity RICE” value ([19]; 63 g ai/ha) was 50, the “Post-emerge Herbicidal Activity RICE” value ([19]; 250 g ai/ha) was 60 and the “Post-emerge Herbicidal Activity CORN” value ([20]; 63 g ai/ha) was 5. For the same compound, the “Post-emerge Herbicidal Activity CORN” value ([20]; 250 g ai/ha) was 25, the “Pre-emerge Herbicidal Activity RICE” value ([21]; rate 63 g ai/ha) was 0 and the “Pre-emerge Herbicidal Activity RICE” value ([21]; rate 250 g ai/ha) was 70. The “Pre-emerge Herbicidal Activity CORN” value ([22]; rate 63 g ai/ha) was 5 and the “Pre-emerge Herbicidal Activity CORN” value ([22]; rate 250 g ai/ha) was 80.

— US6355799B1, “Substituted benzene compounds, process for their preparation, and herbicidal and defoliant compositions containing them” (ISK Americas Incorporated, priority 1997, dated 2002)
